Assay results reported in patent publication US20070116833A1, “High-Potency Sweetener Composition with Calcium and Compositions Sweetened Therewith” (THE COCA-COLA COMPANY, priority 2005, published 2007).

Columns and labels:
[1] = test system: panel of experts in the sensory evaluation of foods and beverages; test: Sensory evaluation of sweetness linger by expert panel; format: in vivo; set-up: key: 0: no sweetness linger; 1: very slight sweetness linger; 2: slight sweetness linger; 3: moderate sweetness linger; 4: moderately high sweetness linger; 5: high sweetness linger; conditions: for sweetness linger: scale 0-5; for Sweetness Linger rating (defined for controls): ratings defined for the protocol, REBA control sample 500 ppm
Description: Sensory evaluation of the samples prepared in Example Set G was carried out under the following protocol, similar to that described hereinabove. In this test protocol, none of the samples were swallowed. All samples were expectorated and the mouth was rinsed with water after the tasting. Immediately upon sensing maximal sweetness, the sample was expectorated, the mouth was rinsed with water and the rate of sweetness decay (“Sweetness Linger”) was measured, where attention was focused on the sweetness 3-4 min after the water rinse. After sample tasting was complete, a salty oyster cracker was chewed followed by a water rinse, and at least 5 minutes followed before tasting the next sample. The sweetness linger was rated by a panel of experts in the sensory evaluation of foods and beverages using the following scale: 0=no sweetness linger, 1 =very slight sweetness linger, 2 slight sweetness linger, 3=moderate sweetness linger, 4 =moderately high sweetness linger, 5 high sweetness linger.
The “Sweetness Linger” rating for sucrose observed by this protocol is defined as 0. The Sweetness Linger of a 500 ppm of REBA control sample is defined as 5. Experimental samples were tasted by the same protocol, always allowing sufficient time between samples to ensure re-equilibration of the sensory system. Re-tasting of control samples during the course of the experiment was allowed and encouraged.
The comparison taste test was performed between two controls and addition of sweet taste improving additive on the onset and/or sweetness linger.
Sweet taste improving compositions were combined with a REBA solution to determine their effect on sweetness linger. Screening of the initial sample, or further dilutions, allowed identification of concentrations which were just above-threshold, herein defined as “near-threshold concentrations.” The near-threshold additive concentrations, a 6- to 100-fold higher additive concentration (depending on the off-taste intensity), and a mid-level additive concentration (halfway between the near-threshold and higher additive concentration) were evaluated to determine the effect on sweetness linger of a REBA solution. […]
Sensory evaluation using the protocol described in Example Set G then was used to evaluate the sweetness linger of the REBA solutions.

[2] = format: physicochemical
Description: A solution of rebaudioside A (>97% pure by HPLC) was prepared in double distilled water (12.5 gm in 50 mL, 25% concentration) by stirring the mixture at 40° C. for 5 minutes. An amorphous form of rebaudioside A was formed by immediately using the clear solution for spray drying with the Lab-Plant spray drier SD-04 instrument (Lab-Plant Ltd., West Yorkshire, U.K.). The solution was fed through the feed pump into the nozzle atomizer which atomized it into a spray of droplets with the help of a constant flow of nitrogen/air. […] This dry powder (11-12 g, H2O 6.74%) was discharged continuously from the drying chamber and was collected in a bottle.

[3] = Rate of dissolution of rebaudioside A polymorphs in H2O; format: physicochemical

Question: Which sweetness linger ([1]; Example Set G: 400 ppm REBA in citric acid/potassium citrate composition equivalent to that in a diet lemon-lime beverage, sweetness 3-4 min after water rinse) does the source give for rebaudioside A here?
Answer: Its sweetness linger is 5.

Question: What about the sweetness linger ([1]; Example Set H: 500 ppm REBA (H41: 360 ppm) in carbon-treated water, phosphoric acid (75%) to pH 2.4-2.5) of the same compound?
Answer: The sweetness linger was 5.

Question: What about the “Sweetness Linger rating (defined for controls)” value [1] of the same compound?
Answer: Its value is 5.

Question: For rebaudioside A [F], which “solubility in water at room temperature” value [2] is on record?
Answer: The value was over 35.0%.

Question: With rebaudioside A [Form 1] as the compound, how does the “Rate of dissolution in H2O at 25° C.” value [3] read?
Answer: The value was “Very low (<0.2%/ %/60 minutes”.

Question: For OC[C@H]1O[C@@](CO)(O[C@H]2O[C@H](CO)[C@@H](O)[C@H](O)[C@H]2O)[C@@H](O)[C@@H]1O [sugar, sucrose, reference compound], which “Sweetness Linger rating (defined for controls)” value [1] is on record?
Answer: The value was 0.
